Experimental data as given in the kinase profiling compilation of Christmann-Franck et al. (2016).

Tests used:
Test in all cases: KINOMEscan competition binding
[1] = test system: EGFR (human), P00533 [T790M]
ROCK1 (human) = ROCK1 (human) (UniProt Q13464)
CSF1R (human) = CSF1R (human) (UniProt P07333)
PIM3 (human) = PIM3 (human) (UniProt Q86V86)
[2] = test system: EGFR (human), P00533 [A750P; 747-749 del]
MAP3K1 (human) = MAP3K1 (human) (UniProt Q13233)
MAP2K7 (human) = MAP2K7 (human) (UniProt O14733)
CDK15 (human) = CDK15 (human) (UniProt Q96Q40)
TAOK3 (human) = TAOK3 (human) (UniProt Q9H2K8)
RPS6KA5 KD2 (human) = RPS6KA5 KD2 (human) (UniProt O75582)
PIK3C2B (human) = PIK3C2B (human) (UniProt O00750)
NEK5 (human) = NEK5 (human) (UniProt Q6P3R8)
[3] = test system: MET (human), P08581 [Y1235D]
MARK3 (human) = MARK3 (human) (UniProt P27448)
EPHA6 (human) = EPHA6 (human) (UniProt Q9UF33)
MAPK3 (human) = MAPK3 (human) (UniProt P27361)
TAOK2 (human) = TAOK2 (human) (UniProt Q9UL54)
PIP5K1A (human) = PIP5K1A (human) (UniProt Q99755)
SLK (human) = SLK (human) (UniProt Q9H2G2)
ACVR1B (human) = ACVR1B (human) (UniProt P36896)
TGFBR1 (human) = TGFBR1 (human) (UniProt P36897)
FLT1 (human) = FLT1 (human) (UniProt P17948)
NIM1 (human) = NIM1 (human) (UniProt Q8IY84)
NUAK1 (human) = NUAK1 (human) (UniProt O60285)
PTK2 (human) = PTK2 (human) (UniProt Q05397)
IKBKE (human) = IKBKE (human) (UniProt Q14164)
SNRK (human) = SNRK (human) (UniProt Q9NRH2)
IGF1R (human) = IGF1R (human) (UniProt P08069)
AURKC (human) = AURKC (human) (UniProt Q9UQB9)
ANKK1 (human) = ANKK1 (human) (UniProt Q8NFD2)
INSRR (human) = INSRR (human) (UniProt P14616)
HIPK4 (human) = HIPK4 (human) (UniProt Q8NE63)
GRK4 (human) = GRK4 (human) (UniProt P32298)
STK10 (human) = STK10 (human) (UniProt O94804)
SRPK1 (human) = SRPK1 (human) (UniProt Q96SB4)
MAP3K13 (human) = MAP3K13 (human) (UniProt O43283)
STK32C (human) = STK32C (human) (UniProt Q86UX6)
RET (human) = RET (human) (UniProt P07949)
ERBB4 (human) = ERBB4 (human) (UniProt Q15303)
DYRK1B (human) = DYRK1B (human) (UniProt Q9Y463)
PI4KB (human) = PI4KB (human) (UniProt Q9UBF8)
HIPK3 (human) = HIPK3 (human) (UniProt Q9H422)

Chain of GRK4 (human) (P32298 whole entry, looked up): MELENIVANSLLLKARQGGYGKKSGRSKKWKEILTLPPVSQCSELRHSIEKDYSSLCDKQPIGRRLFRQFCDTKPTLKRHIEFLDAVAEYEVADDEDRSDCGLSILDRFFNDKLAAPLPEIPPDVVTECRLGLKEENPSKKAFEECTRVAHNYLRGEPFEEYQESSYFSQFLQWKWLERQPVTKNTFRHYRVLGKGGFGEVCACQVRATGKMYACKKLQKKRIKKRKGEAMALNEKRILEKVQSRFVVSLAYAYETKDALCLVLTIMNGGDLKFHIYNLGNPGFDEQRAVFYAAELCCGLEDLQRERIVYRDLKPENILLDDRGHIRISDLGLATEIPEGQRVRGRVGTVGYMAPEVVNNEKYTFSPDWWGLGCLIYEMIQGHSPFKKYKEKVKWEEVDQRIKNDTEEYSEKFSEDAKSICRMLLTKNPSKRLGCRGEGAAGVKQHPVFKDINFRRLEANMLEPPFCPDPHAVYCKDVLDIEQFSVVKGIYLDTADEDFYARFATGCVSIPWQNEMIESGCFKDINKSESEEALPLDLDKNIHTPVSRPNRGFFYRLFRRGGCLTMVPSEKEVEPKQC
Chain of ROCK1 (human) (Q13464 whole entry, looked up): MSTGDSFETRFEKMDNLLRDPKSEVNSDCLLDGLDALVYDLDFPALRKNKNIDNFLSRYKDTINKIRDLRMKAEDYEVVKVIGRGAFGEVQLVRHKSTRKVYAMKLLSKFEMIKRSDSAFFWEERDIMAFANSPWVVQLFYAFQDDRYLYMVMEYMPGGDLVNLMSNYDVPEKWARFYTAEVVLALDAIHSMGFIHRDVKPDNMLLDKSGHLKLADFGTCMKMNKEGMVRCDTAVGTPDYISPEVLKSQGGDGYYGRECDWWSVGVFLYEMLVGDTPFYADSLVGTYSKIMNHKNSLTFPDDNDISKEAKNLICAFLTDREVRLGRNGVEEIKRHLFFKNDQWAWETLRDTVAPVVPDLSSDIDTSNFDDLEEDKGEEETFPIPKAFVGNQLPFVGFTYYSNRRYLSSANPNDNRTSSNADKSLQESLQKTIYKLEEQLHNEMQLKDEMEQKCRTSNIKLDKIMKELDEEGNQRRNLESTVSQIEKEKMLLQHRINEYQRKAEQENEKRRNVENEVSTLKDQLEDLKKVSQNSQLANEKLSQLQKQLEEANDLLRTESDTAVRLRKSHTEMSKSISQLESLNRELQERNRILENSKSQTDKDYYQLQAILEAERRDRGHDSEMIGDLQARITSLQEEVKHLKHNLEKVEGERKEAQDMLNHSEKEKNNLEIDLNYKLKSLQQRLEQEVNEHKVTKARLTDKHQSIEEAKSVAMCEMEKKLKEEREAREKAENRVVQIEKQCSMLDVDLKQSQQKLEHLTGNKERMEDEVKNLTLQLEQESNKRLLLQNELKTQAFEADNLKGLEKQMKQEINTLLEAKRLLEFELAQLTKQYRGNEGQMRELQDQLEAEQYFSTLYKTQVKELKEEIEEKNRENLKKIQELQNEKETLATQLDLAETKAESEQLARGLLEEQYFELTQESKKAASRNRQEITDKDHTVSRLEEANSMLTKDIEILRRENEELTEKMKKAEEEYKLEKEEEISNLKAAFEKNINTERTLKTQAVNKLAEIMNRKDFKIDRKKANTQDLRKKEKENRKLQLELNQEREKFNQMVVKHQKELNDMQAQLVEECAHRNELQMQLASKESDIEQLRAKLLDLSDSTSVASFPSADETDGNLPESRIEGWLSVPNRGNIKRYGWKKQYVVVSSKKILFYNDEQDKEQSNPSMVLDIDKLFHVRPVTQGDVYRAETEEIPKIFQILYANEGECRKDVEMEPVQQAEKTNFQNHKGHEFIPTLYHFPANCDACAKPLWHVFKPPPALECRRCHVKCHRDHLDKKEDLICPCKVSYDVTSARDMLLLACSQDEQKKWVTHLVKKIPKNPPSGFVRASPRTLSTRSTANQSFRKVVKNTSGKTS
Chain of MARK3 (human) (P27448 whole entry, looked up): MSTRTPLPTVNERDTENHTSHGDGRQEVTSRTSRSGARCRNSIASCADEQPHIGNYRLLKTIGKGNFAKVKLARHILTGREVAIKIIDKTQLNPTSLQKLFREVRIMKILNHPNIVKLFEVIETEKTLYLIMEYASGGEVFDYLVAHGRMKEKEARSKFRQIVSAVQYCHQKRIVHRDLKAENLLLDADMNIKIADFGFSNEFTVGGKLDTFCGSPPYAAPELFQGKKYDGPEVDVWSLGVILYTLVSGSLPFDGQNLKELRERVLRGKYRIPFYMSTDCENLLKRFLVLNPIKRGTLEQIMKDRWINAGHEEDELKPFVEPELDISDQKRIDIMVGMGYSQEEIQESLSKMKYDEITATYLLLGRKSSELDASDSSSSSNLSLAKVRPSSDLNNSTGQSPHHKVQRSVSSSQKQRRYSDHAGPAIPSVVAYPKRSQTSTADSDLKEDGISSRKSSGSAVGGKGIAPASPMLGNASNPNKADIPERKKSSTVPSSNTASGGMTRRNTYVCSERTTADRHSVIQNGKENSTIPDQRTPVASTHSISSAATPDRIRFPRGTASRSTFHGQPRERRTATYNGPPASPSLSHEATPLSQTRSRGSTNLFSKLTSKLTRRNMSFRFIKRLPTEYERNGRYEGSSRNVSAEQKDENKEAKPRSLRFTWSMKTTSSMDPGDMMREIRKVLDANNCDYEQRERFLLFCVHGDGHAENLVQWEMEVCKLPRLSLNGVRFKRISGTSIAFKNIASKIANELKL
Chain of RPS6KA5 KD2 (human) (O75582 whole entry, looked up): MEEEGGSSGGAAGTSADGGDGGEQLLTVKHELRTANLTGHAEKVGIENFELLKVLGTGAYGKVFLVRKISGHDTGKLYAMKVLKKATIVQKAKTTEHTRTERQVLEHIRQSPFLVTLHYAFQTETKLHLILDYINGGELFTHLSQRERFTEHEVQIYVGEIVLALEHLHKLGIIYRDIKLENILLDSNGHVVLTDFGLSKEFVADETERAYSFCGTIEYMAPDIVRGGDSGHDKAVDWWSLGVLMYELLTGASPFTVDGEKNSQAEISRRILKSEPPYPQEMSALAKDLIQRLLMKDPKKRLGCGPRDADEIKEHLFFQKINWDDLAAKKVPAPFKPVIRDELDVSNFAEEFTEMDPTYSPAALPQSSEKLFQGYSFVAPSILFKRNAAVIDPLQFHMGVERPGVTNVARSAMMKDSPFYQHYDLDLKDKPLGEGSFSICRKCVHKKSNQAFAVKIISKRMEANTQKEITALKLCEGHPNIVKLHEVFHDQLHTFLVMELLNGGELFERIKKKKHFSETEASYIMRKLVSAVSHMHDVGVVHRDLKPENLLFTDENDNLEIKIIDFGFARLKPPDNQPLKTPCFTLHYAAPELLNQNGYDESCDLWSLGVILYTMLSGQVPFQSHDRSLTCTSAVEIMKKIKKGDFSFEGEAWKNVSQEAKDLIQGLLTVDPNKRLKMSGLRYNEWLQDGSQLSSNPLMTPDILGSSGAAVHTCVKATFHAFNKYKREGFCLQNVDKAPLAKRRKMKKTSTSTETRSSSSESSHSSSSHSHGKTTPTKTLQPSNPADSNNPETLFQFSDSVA
Chain of SNRK (human) (Q9NRH2 whole entry, looked up): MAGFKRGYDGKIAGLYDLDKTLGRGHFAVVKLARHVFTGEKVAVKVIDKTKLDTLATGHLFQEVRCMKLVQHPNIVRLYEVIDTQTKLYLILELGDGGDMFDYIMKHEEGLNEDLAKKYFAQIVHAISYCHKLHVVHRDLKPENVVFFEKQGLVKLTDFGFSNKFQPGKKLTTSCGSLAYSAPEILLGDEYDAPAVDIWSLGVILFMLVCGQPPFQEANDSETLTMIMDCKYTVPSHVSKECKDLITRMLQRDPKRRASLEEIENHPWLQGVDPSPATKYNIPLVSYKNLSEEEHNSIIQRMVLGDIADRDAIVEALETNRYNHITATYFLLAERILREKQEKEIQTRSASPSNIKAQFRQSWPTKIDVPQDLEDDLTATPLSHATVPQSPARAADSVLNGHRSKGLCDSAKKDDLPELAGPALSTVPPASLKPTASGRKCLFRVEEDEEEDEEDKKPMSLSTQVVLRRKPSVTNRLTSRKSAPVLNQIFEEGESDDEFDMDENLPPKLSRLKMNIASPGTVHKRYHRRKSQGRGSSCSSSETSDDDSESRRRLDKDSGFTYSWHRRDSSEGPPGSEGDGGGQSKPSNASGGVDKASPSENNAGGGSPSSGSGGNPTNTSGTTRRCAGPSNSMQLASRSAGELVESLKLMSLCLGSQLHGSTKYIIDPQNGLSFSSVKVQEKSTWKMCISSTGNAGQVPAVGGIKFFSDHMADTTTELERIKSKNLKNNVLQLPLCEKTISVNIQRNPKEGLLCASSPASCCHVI
Chain of NUAK1 (human) (O60285 whole entry, looked up): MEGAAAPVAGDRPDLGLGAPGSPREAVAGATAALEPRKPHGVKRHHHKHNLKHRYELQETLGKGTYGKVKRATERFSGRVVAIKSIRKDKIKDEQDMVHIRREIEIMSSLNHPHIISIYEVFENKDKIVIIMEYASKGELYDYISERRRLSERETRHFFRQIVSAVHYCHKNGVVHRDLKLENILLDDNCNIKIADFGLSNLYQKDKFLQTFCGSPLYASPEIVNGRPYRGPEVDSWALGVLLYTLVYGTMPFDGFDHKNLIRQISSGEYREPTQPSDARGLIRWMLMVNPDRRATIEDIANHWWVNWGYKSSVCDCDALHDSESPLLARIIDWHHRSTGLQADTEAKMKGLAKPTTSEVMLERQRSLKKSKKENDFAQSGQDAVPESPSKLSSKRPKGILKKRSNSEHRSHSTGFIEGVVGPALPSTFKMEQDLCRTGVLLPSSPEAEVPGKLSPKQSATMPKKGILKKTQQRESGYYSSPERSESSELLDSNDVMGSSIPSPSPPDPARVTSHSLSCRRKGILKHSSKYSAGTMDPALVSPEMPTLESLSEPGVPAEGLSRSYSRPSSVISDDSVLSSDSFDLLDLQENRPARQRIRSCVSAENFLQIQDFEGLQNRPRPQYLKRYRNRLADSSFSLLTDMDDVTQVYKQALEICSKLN

With `CN(C)C/C=C/C(=O)Nc1cccc(C(=O)Nc2ccc(Nc3nccc(/C(C#N)=C4\Nc5ccccc5S4)n3)cc2)c1` the kinase still bound, per cent of control ([1]; compound 1.0 µM) was 80%, the kinase still bound, per cent of control (ROCK1 (human); compound 1.0 µM) was 100% and the kinase still bound, per cent of control (CSF1R (human); compound 1.0 µM) was 82%. The kinase still bound, per cent of control (PIM3 (human); compound 1.0 µM) was 100%, the kinase still bound, per cent of control ([2]; compound 1.0 µM) was 94% and the kinase still bound, per cent of control (MAP3K1 (human); compound 1.0 µM) was 100%. It also gave a kinase still bound, per cent of control (MAP2K7 (human); compound 1.0 µM) of 100%, a kinase still bound, per cent of control (CDK15 (human); compound 1.0 µM) of 100% and a kinase still bound, per cent of control (TAOK3 (human); compound 1.0 µM) of 100%. The kinase still bound, per cent of control (RPS6KA5 KD2 (human); compound 1.0 µM) was 100%, the kinase still bound, per cent of control (PIK3C2B (human); compound 1.0 µM) was 96% and the kinase still bound, per cent of control (NEK5 (human); compound 1.0 µM) was 100%. It also gave a kinase still bound, per cent of control ([3]; compound 1.0 µM) of 100%, a kinase still bound, per cent of control (MARK3 (human); compound 1.0 µM) of 100% and a kinase still bound, per cent of control (EPHA6 (human); compound 1.0 µM) of 100%. For the same compound, the kinase still bound, per cent of control (MAPK3 (human); compound 1.0 µM) was 100%, the kinase still bound, per cent of control (TAOK2 (human); compound 1.0 µM) was 100% and the kinase still bound, per cent of control (PIP5K1A (human); compound 1.0 µM) was 39%. For the same compound, the kinase still bound, per cent of control (SLK (human); compound 1.0 µM) was 8.6%, the kinase still bound, per cent of control (ACVR1B (human); compound 1.0 µM) was 96% and the kinase still bound, per cent of control (TGFBR1 (human); compound 1.0 µM) was 97%. For the same compound, the kinase still bound, per cent of control (FLT1 (human); compound 1.0 µM) was 32%, the kinase still bound, per cent of control (NIM1 (human); compound 1.0 µM) was 86% and the kinase still bound, per cent of control (NUAK1 (human); compound 1.0 µM) was 100%. The kinase still bound, per cent of control (PTK2 (human); compound 1.0 µM) was 100%, the kinase still bound, per cent of control (IKBKE (human); compound 1.0 µM) was 100% and the kinase still bound, per cent of control (SNRK (human); compound 1.0 µM) was 100%. For the same compound, the kinase still bound, per cent of control (IGF1R (human); compound 1.0 µM) was 100%, the kinase still bound, per cent of control (AURKC (human); compound 1.0 µM) was 76% and the kinase still bound, per cent of control (ANKK1 (human); compound 1.0 µM) was 100%. The kinase still bound, per cent of control (INSRR (human); compound 1.0 µM) was 87%, the kinase still bound, per cent of control (HIPK4 (human); compound 1.0 µM) was 6% and the kinase still bound, per cent of control (GRK4 (human); compound 1.0 µM) was 78%. For the same compound, the kinase still bound, per cent of control (STK10 (human); compound 1.0 µM) was 86%, the kinase still bound, per cent of control (SRPK1 (human); compound 1.0 µM) was 91% and the kinase still bound, per cent of control (MAP3K13 (human); compound 1.0 µM) was 100%. The kinase still bound, per cent of control (STK32C (human); compound 1.0 µM) was 100%, the kinase still bound, per cent of control (RET (human); compound 1.0 µM) was 91% and the kinase still bound, per cent of control (ERBB4 (human); compound 1.0 µM) was 100%. The kinase still bound, per cent of control (DYRK1B (human); compound 1.0 µM) was 66%, the kinase still bound, per cent of control (PI4KB (human); compound 1.0 µM) was 65% and the kinase still bound, per cent of control (HIPK3 (human); compound 1.0 µM) was 85%.

`Cc1ccc(NC(=O)c2ccc(NC(=O)/C=C/CN(C)C)cc2)cc1Nc1nccc(-c2cccnc2)n1` showed a kinase still bound, per cent of control ([1]; compound 10.0 µM) of 92%, a kinase still bound, per cent of control (ROCK1 (human); compound 10.0 µM) of 59% and a kinase still bound, per cent of control (CSF1R (human); compound 10.0 µM) of 9.2%. For the same compound, the kinase still bound, per cent of control (PIM3 (human); compound 10.0 µM) was 66%, the kinase still bound, per cent of control ([2]; compound 10.0 µM) was 59% and the kinase still bound, per cent of control (MAP3K1 (human); compound 10.0 µM) was 100%. The kinase still bound, per cent of control (MAP2K7 (human); compound 10.0 µM) was 100%, the kinase still bound, per cent of control (CDK15 (human); compound 10.0 µM) was 100% and the kinase still bound, per cent of control (TAOK3 (human); compound 10.0 µM) was 19%. It also gave a kinase still bound, per cent of control (RPS6KA5 KD2 (human); compound 10.0 µM) of 100%, a kinase still bound, per cent of control (PIK3C2B (human); compound 10.0 µM) of 93% and a kinase still bound, per cent of control (NEK5 (human); compound 10.0 µM) of 51%. The kinase still bound, per cent of control ([3]; compound 10.0 µM) was 100%, the kinase still bound, per cent of control (MARK3 (human); compound 10.0 µM) was 100% and the kinase still bound, per cent of control (EPHA6 (human); compound 10.0 µM) was 100%. It also gave a kinase still bound, per cent of control (MAPK3 (human); compound 10.0 µM) of 100%, a kinase still bound, per cent of control (TAOK2 (human); compound 10.0 µM) of 61% and a kinase still bound, per cent of control (PIP5K1A (human); compound 10.0 µM) of 8%. The kinase still bound, per cent of control (SLK (human); compound 10.0 µM) was 100%, the kinase still bound, per cent of control (ACVR1B (human); compound 10.0 µM) was 70% and the kinase still bound, per cent of control (TGFBR1 (human); compound 10.0 µM) was 100%. It also gave a kinase still bound, per cent of control (FLT1 (human); compound 10.0 µM) of 91%, a kinase still bound, per cent of control (NIM1 (human); compound 10.0 µM) of 92% and a kinase still bound, per cent of control (NUAK1 (human); compound 10.0 µM) of 100%. The kinase still bound, per cent of control (PTK2 (human); compound 10.0 µM) was 70%, the kinase still bound, per cent of control (IKBKE (human); compound 10.0 µM) was 100% and the kinase still bound, per cent of control (SNRK (human); compound 10.0 µM) was 92%. For the same compound, the kinase still bound, per cent of control (IGF1R (human); compound 10.0 µM) was 100%, the kinase still bound, per cent of control (AURKC (human); compound 10.0 µM) was 67% and the kinase still bound, per cent of control (ANKK1 (human); compound 10.0 µM) was 13%. For the same compound, the kinase still bound, per cent of control (INSRR (human); compound 10.0 µM) was 100%, the kinase still bound, per cent of control (HIPK4 (human); compound 10.0 µM) was 18% and the kinase still bound, per cent of control (GRK4 (human); compound 10.0 µM) was 88%. For the same compound, the kinase still bound, per cent of control (STK10 (human); compound 10.0 µM) was 89%, the kinase still bound, per cent of control (SRPK1 (human); compound 10.0 µM) was 74% and the kinase still bound, per cent of control (MAP3K13 (human); compound 10.0 µM) was 89%. For the same compound, the kinase still bound, per cent of control (STK32C (human); compound 10.0 µM) was 80%, the kinase still bound, per cent of control (RET (human); compound 10.0 µM) was 99% and the kinase still bound, per cent of control (ERBB4 (human); compound 10.0 µM) was 100%. It also gave a kinase still bound, per cent of control (DYRK1B (human); compound 10.0 µM) of 68%, a kinase still bound, per cent of control (PI4KB (human); compound 10.0 µM) of 40% and a kinase still bound, per cent of control (HIPK3 (human); compound 10.0 µM) of 35%.
